In brackets after ≈: the same amount, converted by molar mass. Like-named read-outs stand apart in the source and are kept apart here.
Key:
[1] = Intrinsic clearance in human liver microsomes; type: in vitro ADME; details: human liver microsomes 0.5 mg/mL, 5 μM test compound, 37° C.; read-out: Human liver microsome (Clint μL/min/mg protein)
Procedure: (§1) Rat or human liver microsomes (0.5 mg/mL; Corning) were incubated with 5 μM test compound at 37° C. on a shaking platform (150 rpm). Samples were taken at 0, 6, 12, 18, 24 and 60 min and test compound concentrations were determined by LCMS against a calibration curve.

[2] = Plasma protein binding (PPB), rapid equilibrium dialysis, human plasma; type: in vitro ADME; details: 5 μM test compound, dialysis 5 hrs at 37° C.
Procedure: The fraction unbound in plasma was determined using ThermoScientific™ Pierce™ Rapid Equilibrium Dialysis Technology (Single-Use plate with inserts, 8K MWCO). […] Reference samples from the non-dialysed plasma were taken before the incubation to enable an assessment of recovery. Test compound concentrations were determined in plasma and buffer compartments by LCMS against a calibration curve. […] Results are presented as percent plasma protein bound (% PPB).

[3] = target: Human FXIa (Homo sapiens (Human), UniProt P03951); test: Determination of the % inhibition / IC50 for FXIa; type: biochemical; details: for inhibition at 40 µM: 40 μM test compound, read-out: % Inhibition @ 40 μM (human FXIa); for IC50: 25° C., substrate Z-Gly-Pro-Arg-AFC
Human FXIa, sequence (P03951 388-625): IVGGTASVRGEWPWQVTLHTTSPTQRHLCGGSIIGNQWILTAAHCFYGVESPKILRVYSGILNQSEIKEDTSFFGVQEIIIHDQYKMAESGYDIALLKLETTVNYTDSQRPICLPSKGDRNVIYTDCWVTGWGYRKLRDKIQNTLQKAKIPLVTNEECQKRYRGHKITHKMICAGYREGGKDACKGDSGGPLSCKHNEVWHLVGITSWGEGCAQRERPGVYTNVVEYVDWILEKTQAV
Human FXIa, sequence (P03951 19-387): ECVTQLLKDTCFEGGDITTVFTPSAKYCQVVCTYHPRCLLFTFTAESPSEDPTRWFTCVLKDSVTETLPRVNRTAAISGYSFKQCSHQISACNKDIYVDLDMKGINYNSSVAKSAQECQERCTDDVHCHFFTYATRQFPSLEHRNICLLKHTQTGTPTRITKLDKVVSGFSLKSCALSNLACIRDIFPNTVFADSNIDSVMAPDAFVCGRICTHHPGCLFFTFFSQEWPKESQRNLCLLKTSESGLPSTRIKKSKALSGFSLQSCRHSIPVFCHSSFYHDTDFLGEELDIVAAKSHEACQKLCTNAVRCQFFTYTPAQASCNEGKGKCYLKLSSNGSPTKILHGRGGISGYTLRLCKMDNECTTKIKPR
Procedure: FXIa inhibitory activity in vitro was determined using standard published methods (see e.g. Johansen et al., Int. J. Tiss. Reac. 1986, 8, 185; Shori et al., Biochem. Pharmacol., 1992, 43, 1209; Sturzebecher et al., Biol. Chem. Hoppe-Seyler, 1992, 373, 1025). […]

[4] = target: trypsin; test: Determination of enzyme selectivity: trypsin; type: biochemical, human; details: substrate at Km concentration
Procedure: (§4) Human serine protease enzymes plasmin, thrombin and trypsin were assayed for enzymatic activity using an appropriate fluorogenic substrate. Protease activity was measured by monitoring the accumulation of liberated fluorescence from the substrate over 5 minutes. The linear rate of fluorescence increase per minute was expressed as percentage (%) activity. The Km for the cleavage of each substrate was determined by standard transformation of the Michaelis-Menten equation.

[5] = Intrinsic clearance in rat liver microsomes; type: in vitro ADME; details: rat liver microsomes 0.5 mg/mL, 5 μM test compound, 37° C.; read-out: rat liver microsome (Clint μL/min/mg protein)
Procedure: as §1

[6] = target: Human Factor XIIa (Homo sapiens (Human), UniProt P00748); test: Factor XIIa inhibitory activity in vitro; type: biochemical; details: 25° C., substrate H-DPro-Phe-Arg-AFC; read-out: IC50 (human FXIIa)
Human Factor XIIa, sequence (P00748 373-615): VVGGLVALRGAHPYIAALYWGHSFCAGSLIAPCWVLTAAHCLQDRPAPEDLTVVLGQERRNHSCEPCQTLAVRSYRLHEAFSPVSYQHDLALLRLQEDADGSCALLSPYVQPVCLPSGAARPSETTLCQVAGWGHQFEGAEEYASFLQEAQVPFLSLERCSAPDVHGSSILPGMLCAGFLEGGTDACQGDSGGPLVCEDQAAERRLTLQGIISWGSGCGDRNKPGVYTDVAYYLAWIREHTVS
Procedure: (§2) Human Factor XIIa (Enzyme Research Laboratories) was incubated at 25° C. with the fluorogenic substrate H-DPro-Phe-Arg-AFC and various concentrations of the test compound. Residual enzyme activity (initial rate of reaction) was determined by measuring the change in […] at 410 nm and the IC50 value for the test compound was determined.

[7] = In vitro permeability, Caco-2 model for oral absorption; type: in vitro ADME; details: human, apical to basolateral, 50 μM test compound, 37° C.
How it was run: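 Caco-2 monolayers grown on collagen inserts for 3 days, with 50 μM compound added apically and incubated 1 hour at 37° C with shaking. Apical-to-basolateral transport measured by LCMS in both compartments. Monolayer integrity checked by TEER before and after, and by Lucifer Yellow flux.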

[8] = target: T1, Human plasma kallikrein (Homo sapiens (Human), UniProt P03952); test: Determination of the IC50 for plasma kallikrein; type: biochemical; details: 25° C., substrate H-DPro-Phe-Arg-AFC; read-out: IC50 (human PKal)
T1 sequence (P03952 391-638): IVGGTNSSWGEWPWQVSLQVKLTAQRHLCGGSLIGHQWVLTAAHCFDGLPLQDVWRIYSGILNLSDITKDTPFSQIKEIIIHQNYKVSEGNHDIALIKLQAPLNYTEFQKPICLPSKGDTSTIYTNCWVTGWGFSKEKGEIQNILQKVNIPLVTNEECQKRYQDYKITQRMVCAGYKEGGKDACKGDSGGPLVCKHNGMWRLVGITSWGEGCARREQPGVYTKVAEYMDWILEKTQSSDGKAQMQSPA
T1 sequence (P03952 20-390): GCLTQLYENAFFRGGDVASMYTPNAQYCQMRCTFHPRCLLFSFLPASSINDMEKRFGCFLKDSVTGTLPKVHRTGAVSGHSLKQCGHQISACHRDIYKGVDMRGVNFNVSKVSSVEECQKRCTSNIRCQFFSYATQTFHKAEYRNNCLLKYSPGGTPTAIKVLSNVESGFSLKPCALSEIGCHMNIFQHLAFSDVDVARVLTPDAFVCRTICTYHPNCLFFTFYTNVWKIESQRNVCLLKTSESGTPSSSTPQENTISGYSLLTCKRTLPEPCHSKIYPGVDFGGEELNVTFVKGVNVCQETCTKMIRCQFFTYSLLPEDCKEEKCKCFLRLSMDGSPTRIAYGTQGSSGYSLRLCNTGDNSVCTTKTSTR
Procedure: as §2, with “plasma kallikrein (Protogen)” for “Factor XIIa (Enzyme Research Laboratories)”

[9] = Predicted plasma clearance (Clp), well-stirred model, rat; type: in vitro ADME; details: percentage of hepatic blood flow
Procedure: (§3) The predicted plasma clearance (Clp) is calculated using the well-stirred model (Rowland M, Benet L Z, and Graham G G. Clearance concepts in pharmacokinetics. J Pharmacokinet Biopharm. (1973) 1:123-136.), one of several models that can be used to extrapolate the in vitro data. The model assumes instantaneous and complete mixing of drug within the liver and is a function of intrinsic clearance, hepatic blood flow and free fraction of drug in the blood. The predicted plasma clearance in mL/min/kg is presented as a percentage of hepatic blood flow (LBF).

[10] = Solubility in water and 0.1N HCl (aq); type: physicochemical; details: thermodynamic from solid, incubated at 1 mg/mL, 37° C.
Procedure: Solubility was determined in water and 0.1N HCl (aq). Test compounds were incubated at 1 mg/mL for 24 hrs at 37° C. on a shaking platform (500 rpm). Samples were taken at 1, 4 and 24 hrs and centrifuged at 15,000 g for 10 min. Test compound concentration in the supernatant was determined by LCMS against a standard curve.

[11] = Plasma protein binding (PPB), rapid equilibrium dialysis, rat plasma; type: in vitro ADME; details: 5 μM test compound, dialysis 5 hrs at 37° C.
Procedure: The fraction unbound in plasma was determined using ThermoScientific™ Pierce™ Rapid Equilibrium Dialysis Technology (Single-Use plate with inserts, 8K MWCO). 5 μM test compound was spiked into human or rat plasma (300 μL) and dialysed against 146.5 mM phosphate buffer (500 μL) for 5 hrs at 37° C., shaking at 1200 rpm. Reference samples from the non-dialysed plasma were taken before the incubation to enable an assessment of recovery. Test compound concentrations were determined in plasma and buffer compartments by LCMS against a calibration curve. The fraction unbound in plasma was determined using standard methodology (Waters N J et al (2008) J Pharm Sci 97(10); 4586-95). Results are presented as percent plasma protein bound (% PPB).

[12] = target: Human KLK1 (Homo sapiens (Human), UniProt P06870); test: Determination of the IC50 for KLK1; type: biochemical; details: 25° C., substrate H-DVal-Leu-Arg-AFC
Human KLK1, sequence (P06870 25-262): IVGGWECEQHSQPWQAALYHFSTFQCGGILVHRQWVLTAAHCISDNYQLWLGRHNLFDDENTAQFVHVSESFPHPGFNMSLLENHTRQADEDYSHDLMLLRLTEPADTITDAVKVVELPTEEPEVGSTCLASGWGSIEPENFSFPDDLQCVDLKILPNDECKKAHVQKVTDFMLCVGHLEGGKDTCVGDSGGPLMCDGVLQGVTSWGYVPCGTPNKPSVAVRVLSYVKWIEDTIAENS
Procedure: as §2, with “KLK1 (Callbiochem)” for “Factor XIIa (Enzyme Research Laboratories)”, “H-DVal-Leu-Arg-AFC” for “H-DPro-Phe-Arg-AFC”

[13] = target: plasmin (Homo sapiens (Human), UniProt P00747); test: Determination of enzyme selectivity: plasmin; type: biochemical; details: substrate at Km concentration
plasmin, sequence (P00747 581-810): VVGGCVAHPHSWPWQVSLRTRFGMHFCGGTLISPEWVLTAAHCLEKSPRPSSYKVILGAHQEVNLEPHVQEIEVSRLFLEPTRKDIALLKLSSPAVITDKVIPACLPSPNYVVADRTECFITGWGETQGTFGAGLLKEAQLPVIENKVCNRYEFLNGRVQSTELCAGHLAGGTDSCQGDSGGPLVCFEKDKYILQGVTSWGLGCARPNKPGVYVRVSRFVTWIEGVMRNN
plasmin, sequence (P00747 97-580): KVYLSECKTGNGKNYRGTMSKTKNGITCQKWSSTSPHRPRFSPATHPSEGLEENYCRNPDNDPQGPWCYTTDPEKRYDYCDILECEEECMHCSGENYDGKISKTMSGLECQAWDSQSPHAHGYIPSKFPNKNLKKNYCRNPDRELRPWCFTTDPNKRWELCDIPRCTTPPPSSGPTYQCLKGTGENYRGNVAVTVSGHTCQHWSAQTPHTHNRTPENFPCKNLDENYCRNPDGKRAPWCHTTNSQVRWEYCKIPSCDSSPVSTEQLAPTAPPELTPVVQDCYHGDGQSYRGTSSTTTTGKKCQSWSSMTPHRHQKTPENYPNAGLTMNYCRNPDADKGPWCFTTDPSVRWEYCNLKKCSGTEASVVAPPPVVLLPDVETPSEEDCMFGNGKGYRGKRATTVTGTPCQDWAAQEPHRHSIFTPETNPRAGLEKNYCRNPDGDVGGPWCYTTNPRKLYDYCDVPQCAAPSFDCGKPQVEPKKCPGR

[14] = target: thrombin (Homo sapiens (Human), UniProt P00734); test: Determination of enzyme selectivity: thrombin; type: biochemical; details: substrate at Km concentration
Procedure: as §4

[15] = Predicted plasma clearance (Clp), well-stirred model, human; type: in vitro ADME; details: percentage of hepatic blood flow
Procedure: as §3

[16] = target: T1, Human plasma kallikrein; test: Determination of the Ki for plasma kallikrein (mixed-model inhibition); type: biochemical; details: for Ki: human plasma kallikrein, mixed-model inhibition equation; for Alpha: parameter of the mixed-model equation indicating mechanism of inhibition
Procedure: Plasma kallikrein inhibitory activity in vitro was determined using standard published methods (e.g. Johansen et al., Int. J. Tiss. Reac. 1986, 8, 185; Shori et al., Biochem. Pharmacol., 1992, 43, 1209; Sturzebecher et al., Biol. Chem. Hoppe-Seyler, 1992, 373, 1025). […]. Residual enzyme activity (initial rate of reaction) was determined by measuring the change in fluorescence at 410 nm. The Ki value for the test compound was determined using the mixed-model inhibition equation (based on Equation 3.2 in: RA Copeland, Evaluation of Enzyme Inhibitors in Drug Discovery, Wiley 2005) in GraphPad Prism. The mixed model equation includes competitive, uncompetitive and noncompetitive inhibition as special cases and the parameter of Alpha to indicate mechanism of inhibition.

[17] = simulated gastric fluid, 0.1N HCl (aq), read-out: Solubility 0.1N HCl (aq)
[18] = water, read-out: Solubility Water

SMILES | microsomal CLint at 5 μM [1] | fraction unbound at 5 h, 5 μM [2] | inhibition at 40 µM [3] | IC50 [3] | IC50 [4] | microsomal CLint at 5 μM [5] | IC50 [6] | Papp at 1 h, 50 μM [7] | IC50 [8] | Predicted in vivo rat Clp (% LBF) [9] | solubility [10, 17] | solubility [10, 18] | fraction unbound at 5 h, 5 μM [11] | IC50 [12] | IC50 [13] | IC50 [14] | Predicted in vivo human Clp (% LBF) [15] | Ki [16] | Alpha [16] | inhibition at 12.7 µM ([3]; 12.7 μM test compound)
COc1ccc(F)c(CNC(=O)c2cn(Cc3ccc(Cn4ccccc4=O)cc3)nc2N)c1F [Example 35, 3-amino-N-[(2,6-difluoro-3-methoxyphenyl)methyl]-1-({4-[(2-oxopyridin-1-yl)methyl]phenyl}methyl)pyrazole-4-carboxamide] | 24 µL/min/mg | 0.04 | 5% | > 40 µM | > 40 µM | 15 µL/min/mg | > 40 µM | 7 ×10⁻⁶ cm/s | 0.0017 µM | 1 % LBF | 40 µg/mL (≈ 83.4 µM) | 20 µg/mL (≈ 41.7 µM) | 0.01 | > 40 µM | > 40 µM | > 40 µM | 7 % LBF |  |  | 
COCc1nn(Cc2ccc(Cn3ccccc3=O)cc2)cc1C(=O)NCc1cc(OC)ccc1C#N [Example 37, N-[(2-cyano-5-methoxyphenyl)methyl]-3-(methoxymethyl)-1-({4-[(2-oxopyridin-1-yl)methyl]phenyl}methyl)pyrazole-4-carboxamide] | 48 µL/min/mg | 0.08 | 7% | > 40 µM | > 40 µM | 73 µL/min/mg | > 40 µM | 20 ×10⁻⁶ cm/s | 0.283 µM | 11 % LBF |  |  | 0.05 | > 40 µM | > 40 µM | > 40 µM | 16 % LBF |  |  | 
COCc1nn(Cc2ccc(Cn3ccccc3=O)cc2)cc1C(=O)NCc1cc(OC)ccc1-n1cnnn1 [Example 40, N-{[5-methoxy-2-(1,2,3,4-tetrazol-1-yl)phenyl]methyl}-3-(methoxymethyl)-1-({4-[(2-oxopyridin-1-yl)methyl]phenyl}methyl)pyrazole-4-carboxamide] | 22 µL/min/mg | 0.24 | 20% | > 40 µM | > 40 µM | 47 µL/min/mg | > 40 µM | 5 ×10⁻⁶ cm/s | 0.0004 µM | 14 % LBF |  |  | 0.13 | > 40 µM | > 40 µM | > 40 µM | 17 % LBF | 0.0001 µM | 2.2 | 
COc1ccc(C#N)c(CNC(=O)c2cn(Cc3ccc(Cn4ccccc4=O)cc3)nc2N)c1F [Example 43, 3-amino-N-[(6-cyano-2-fluoro-3-methoxyphenyl)methyl]-1-({4-[(2-oxopyridin-1-yl)methyl]phenyl}methyl)pyrazole-4-carboxamide] | 10 µL/min/mg | 0.12 | 27% | > 40 µM | > 40 µM | 5 µL/min/mg | > 4 µM | 2 ×10⁻⁶ cm/s | 0.0006 µM | 2 % LBF |  |  | 0.08 | > 4 µM | > 40 µM | > 40 µM | 8 % LBF |  |  | 
COCc1nn(Cc2ccc(Cn3cc(F)ccc3=O)cc2)cc1C(=O)NCc1c(C#N)ccc(OC)c1F [Example 53, N-[(6-cyano-2-fluoro-3-methoxyphenyl)methyl]-1-({4-[(5-fluoro-2-oxopyridin-1-yl)methyl]phenyl}methyl)-3-(methoxymethyl)pyrazole-4-carboxamide] | 104 µL/min/mg | 0.1 | 5% | > 40 µM | > 40 µM | 77 µL/min/mg | > 40 µM | 13 ×10⁻⁶ cm/s | 0.0017 µM | 10 % LBF |  |  | 0.04 | > 40 µM | > 40 µM | > 40 µM | 35 % LBF |  |  | 
COCc1nn(Cc2ccc(Cn3ccccc3=O)cc2)cc1C(=O)NCc1cc(Cl)ccc1-n1cnnn1 [Example 72, N-{[5-chloro-2-(1,2,3,4-tetrazol-1-yl)phenyl]methyl}-3-(methoxymethyl)-1-({4-[(2-oxopyridin-1-yl)methyl]phenyl}methyl)pyrazole-4-carboxamide] | 32 µL/min/mg | 0.1 |  | 10.6 µM | > 40 µM | 72 µL/min/mg | > 4 µM | 6 ×10⁻⁶ cm/s | 0.0007 µM | 12 % LBF | 46 µg/mL (≈ 84.4 µM) | 46 µg/mL (≈ 84.4 µM) | 0.06 | > 4 µM | > 40 µM | 39.2 µM | 14 % LBF | 0.00016 µM | 6.0 | 53%

Source: patent US11180484B2, “Pyrazole derivatives as plasma kallikrein inhibitors” (KALVISTA PHARMACEUTICALS LIMITED, priority 2016, dated 2021)
